Patent US11384109B2, “Method for separating phenolic acid glucoside compounds from Diaphragma juglandis Fructu” (Jiangnan University, priority 2020, dated 2022)
Marks after values point to notes of the source that are not given here.

Tests used:
[1] = system: aging model mice induced by D-galactose; assay: Antioxidant effects in subacute aging model mice induced by D-galactose (serum SOD by ELISA, liver MDA by colorimetry); assay type: in vivo, ICR mice; settings: 500 mg/kg by gavage for 6 weeks; for Liver MDA / Serum SOD: 150 mg/kg D-galactose s.c., 24 hours after last administration, x ± s, 10 mice per group; for Liver MDA: 10% liver homogenate; for liver MDA content compared with the model group / serum SOD activity compared with the model group: result in words, One-way ANOVA Dunnett test
Text: 1.1 Animals: ICR mice, 6 weeks old, 20-25 g, SPF grade, purchased from Shanghai Slack Experimental Animal Co., Ltd.
1.2 Reagents: D-galactose, purchased from Sigma, USA; malondialdehyde (MDA) kit, purchased from Nanjing Jiancheng Bioengineering Institute; superoxide dismutase (SOD) kit, purchased from Shanghai Aisalai Eliza Biotechnology Co., Ltd.
2.1 Animal grouping and administration: after one week of adaptive feeding, mice were randomly divided into 5 groups, 10 mice each group. The administration group was gavaged with Compounds 1-3, 500 mg/kg per compound. The blank group and aging model group were gavaged with equal volume of normal saline for 6 weeks. At the same time, 150 mg/kg D-galactose was injected subcutaneously into the aging model group and the administration group respectively to establish a subacute aging model of mice. The blank control group was injected with equal volume of normal saline for 6 weeks.
2.2 Sample preparation and index determination: 24 hours after the last administration, blood was collected from the eyeballs of mice; after dislocation for execution, the liver was removed, cleaned and ground at low temperature to prepare 10% tissue homogenate, which was centrifuged at 3500 rpm and 4° C. for 10 min, and supernatant was taken and stored at −20° C. The content of MDA in the liver tissue was determined by colorimetry, and the activity of SOD in serum was determined by ELISA.
2.3 Statistical analysis: the results were expressed as x±s. The results were analyzed by One-way ANOVA Dunnett test using SPSS 20 software.

[2] = Solubility description of the isolated compounds

| Compound | Liver MDA [1] | Serum SOD [1] | liver MDA content compared with the model group [1] | serum SOD activity compared with the model group [1] | solubility in chloroform [2] | solubility in water, ethanol and the like [2] |
| --- | --- | --- | --- | --- | --- | --- |
| 2,6-dihydroxynaphthyl-O-β-D-glucopyranoside [Compound 3] | 0.183 ± 0.051^a nmol/mg tissue | 103.44 ± 15.75^a U/mL | significantly (P<0.05) lower than that in the model group | significantly (P<0.05) higher than that in the model group | insoluble | soluble |
| COc1ccc(O)c(O[C@@H]2O[C@H](CO)[C@@H](O)[C@H](O)[C@H]2O)c1 [Compound 1, 2-hydroxyl-5-methoxylphenyl-O-β-D-glucopyranoside] | 0.211 ± 0.019^a nmol/mg tissue | 94.90 ± 8.07^a U/mL | significantly (P<0.05) decreased | significantly (P<0.05) increased | insoluble | soluble |
| OC[C@H]1O[C@@H](Oc2ccc3cc(O)ccc3c2O[C@@H]2O[C@H](CO)[C@@H](O)[C@H](O)[C@H]2O)[C@H](O)[C@@H](O)[C@@H]1O [Compound 2, 6-hydroxylnaphthyl-1,2-di-O-β-D-glucopyranoside] | 0.198 ± 0.037^a nmol/mg tissue | 97.06 ± 10.18^a U/mL | significantly (P<0.05) decreased | significantly (P<0.05) increased | – | – |
